SMILES strings stand for the structures.

The test system of this experiment is HDMEC cells (Human Dermal Microvascular Endothelial Cells). As to the kind of experiment: Detachment of endothelial cells in vitro (HDMEC detachment test). The experiment is classed as cell-based. To be noted: Endothelial cell, 2 h, 1 μM compound, two hours treatment, plates precoated with fibronectin, vitronectin or gelatin, calcein fluorescence, relative to untreated control, mean of six samples, >=15% regarded as significant, read-out: Percentage of detachment of HDMEC cells induced by 1 μM of compound. The procedure:
A test for the determination of the detachment of endothelial cells has been developed in order to select products with respect to their “in vitro” activity. Such test was employed in the present invention. By way of this test, the endothelial cells were inoculated in plates, the bottom of which were covered with at least one binding agent, for example, chosen from gelatin, fibronectin, and vitronectin. The inoculated endothelial cells were then cultured. The cultured endothelial cells were treated with a medium comprising the test compound. The cells were then labeled with a fluorescent substance. The detached cells were removed by washing; and the fluorescence of the remaining cells was counted with a fluorimeter.
This test measures the detachment of endothelial cells cultured on substrata based on at least one binding agent, for example, chosen from fibronectin, vitronectin, and gelatin. Generally, one day after the cells were seeded in plates, which comprised, for example, 96 wells, the culture medium was replaced by a medium, which comprised the test compound in the absence of serum. The same preparation was prepared six times at three different concentrations ([…]) and the control was prepared six times without addition of antivascular product. After the cells were treated for two hours with the test substance, the cells were labeled with calcein AM (1.6 μg/ml) in culture medium supplemented with 0.1% of BSA. The cells that detached were removed by washing with culture medium comprising 0.1% of bovine serum albumin. 100 μl of medium were then added to each well. The fluorescence of the remaining cells was counted with a fluorimeter. The data obtained is expressed with respect to the control (untreated cells).
The evaluation of the detachment of endothelial cells in vitro was determined in the following way: HDMEC cells (Human Dermal Microvascular Endothelial Cells, Promocell, c-122102) were cultured in an ECGM-MV medium which comprised 5% of foetal calf serum, growth factors (EGF 10 ng/ml, hydrocortisone 1 μg/ml, 0.4% growth supplement with heparin) and antibiotics (amphotericin 50 ng/ml, gentamicin 50 μg/ml). For the detachment test, the HDMECs were inoculated at 5000 cells in clear-bottomed 96-well plates (Costar) precoated with fibronectin (10 μg/ml) or vitronectin (1 μg/ml) or gelatin. Twenty four hours later, the culture medium was replaced with ECGM-MV 0.1% BSA medium comprising the products shown. The concentrations tested were 0.1, 0.3 and 1 μM for each product. After treating for two hours, the cells were labeled for one hour with calcein (1.6 μg/ml, Molecular Probes) in ECGM-MV 0.1% BSA medium. The detached cells were subsequently removed by washing with ECGM-MV 0.1% BSA medium; 100 μl of medium was added to each well. The fluorescence of the cells which remained attached to the substratum of the well were counted using a fluorimeter, Spectrafluor Plus (Tecan, excitation 485 nm and emission 535 nm).
A cell detachment effect of greater than or equal to 15% is regarded as significant.
As for `COc1cc(C(=O)/C(C)=C/c2ccc(N(C)C)cc2)cc(OC)c1OC` [Example 5], the inhibition at 1 µM is 15%.
The value for `COc1cc(C(=O)/C(Cl)=C/c2ccc(N(C)C)cc2)cc(OC)c1OC` [Example 8] was 23 to 43%; that for `COc1ccc(OC)c(C(=O)/C=C/c2ccc(NC(C)=O)cc2)c1` [Comparative Example 1, reference compound] was 2%.
In the case of `COc1ccc(OC)c(C(=O)/C(Cl)=C/c2ccc(N(C)C)cc2)c1` [Example 3], the inhibition at 1 µM was 25 to 29%.
The figure for `COc1ccc(OC)c(C(=O)/C=C/c2ccc(N(C)C)cc2)c1` [Example 4] is 18 to 19%.
The figure for `CCCCNc1ccc(/C=C(\C)C(=O)c2cc(OC)c(OC)c(OC)c2)cc1` [Comparative Example 2, reference compound] is 6%; for `COc1ccc(C(=O)/C(Br)=C/c2ccc(N(C)C)cc2)c(OC)c1OC` [Example 13] it is 23 to 34%.
The value for `CCN(CC)c1ccc(/C=C/C(=O)c2cc(OC)c(OC)c(OC)c2)cc1` [Example 11] was 20%; that for `CCN(CC)c1ccc(/C=C(\C)C(=O)c2ccc(OC)c(OC)c2OC)cc1` [Example 6] was 35 to 41%; that for `CCN(CC)c1ccc(/C=C(\C)C(=O)c2cc(OC)ccc2OC)cc1` [Example 2] was 20 to 23%.
Consider `CC/C(=C\c1ccc(N(C)C)cc1)C(=O)c1ccc(OC)c(OC)c1OC` [Example 10], for which the inhibition at 1 µM was 15%.
The figure for `COc1ccc(C(=O)/C(Cl)=C/c2ccc(N(C)C)cc2)c(OC)c1OC` [Example 7] is 22 to 42%.
The value for `CCN(CC)c1ccc(/C=C/C(=O)c2ccc(OC)c(OC)c2OC)cc1` [Example 9] was 19%.
As for `COc1ccc(OC)c(C(=O)/C(C)=C/c2ccc(N(C)C)cc2)c1` [Example 1], the inhibition at 1 µM is 23 to 49%.
The value for `COc1ccc(C(=O)/C=C/c2ccc(N(C)C)cc2)c(OC)c1OC` [Example 14] was 18 to 20%.
